Measured values taken from ChEMBL document CHEMBL1201862, “PubChem BioAssay data set” (2004).
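Interpolation was linear, between the two tested concentrations surrounding the appropriate level; five concentrations were tested over 48 hours in 96-well plates. GI50 = concentration required for 50% inhibition of growth.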 Activity calls are given as the source filed them. Cut-off read from the data, not from the text of the source: active = GI50 up to about 1.1 µM and inactive = higher.

Columns and labels:
Assay in all cases: inhibition of tumour cell growth, NCI panel, 48 h
786-0 = system: 786-0
A498 = system: A498
ACHN = system: ACHN
DU-145 = system: DU-145
EKVX = system: EKVX
HCC 2998 = system: HCC 2998
HL-60 = system: HL-60
HT-29 = system: HT-29
Hs-578T = system: Hs-578T
IGROV-1 = system: IGROV-1
MDA-MB-435 = system: MDA-MB-435
MDA-N = system: MDA-N
NCI-H23 = system: NCI-H23
NCI/ADR-RES = system: NCI/ADR-RES
RPMI-8226 = system: RPMI-8226
SK-MEL-5 = system: SK-MEL-5
SR = system: SR
T47D = system: T47D
UACC-62 = system: UACC-62
MCF7 = system: MCF7

Measured: GI50

CN(C)c1ccc(/N=N\c2cccc3ccoc23)cc1
inactive: 786-0 > 100 µM | A498 > 100 µM | ACHN > 100 µM | DU-145 > 100 µM | EKVX 26.9 µM | HCC 2998 60.8 µM | HL-60 23.8 µM | HT-29 29.5 µM | Hs-578T > 100 µM | IGROV-1 > 70.3 µM | MDA-MB-435 > 94.2 µM | MDA-N > 94.4 µM | NCI-H23 > 68.7 µM | NCI/ADR-RES 43.1 µM | RPMI-8226 52.2 µM | SK-MEL-5 43.4 µM | SR 23.3 µM | T47D 61.7 µM | UACC-62 > 100 µM

CC(C)(Br)C(Br)CCC1(C(Br)CBr)CO1 (stereo unspecified)
inactive: 786-0 > 10 µM | A498 > 10 µM | ACHN > 10 µM | DU-145 > 10 µM | EKVX > 10 µM | HCC 2998 > 10 µM | HL-60 > 10 µM | HT-29 > 10 µM | IGROV-1 > 10 µM | MCF7 > 10 µM | MDA-MB-435 > 10 µM | MDA-N > 10 µM | NCI-H23 > 10 µM | RPMI-8226 > 10 µM | SK-MEL-5 > 10 µM | SR > 10 µM | T47D > 10 µM | UACC-62 > 10 µM

CC(C)Oc1c(C2(c3ccccc3)SCCCS2)c(=O)c1=O
inactive: 786-0 > 100 µM | A498 > 100 µM | ACHN > 100 µM | DU-145 > 100 µM | EKVX > 100 µM | HL-60 > 100 µM | HT-29 > 100 µM | Hs-578T 84.7 µM | IGROV-1 > 100 µM | MCF7 > 100 µM | MDA-MB-435 > 100 µM | MDA-N > 100 µM | NCI-H23 > 100 µM | NCI/ADR-RES > 100 µM | SK-MEL-5 > 100 µM | T47D > 100 µM | UACC-62 > 100 µM

Cc1ccc2nc(NC(=O)C(=O)C3C(=O)NC(=S)NC3=O)sc2c1
inactive: 786-0 > 100 µM | A498 > 100 µM | ACHN > 100 µM | EKVX > 100 µM | HCC 2998 > 100 µM | HL-60 > 100 µM | HT-29 > 100 µM | Hs-578T > 100 µM | IGROV-1 49.4 µM | MCF7 > 100 µM | MDA-MB-435 > 100 µM | MDA-N > 100 µM | NCI-H23 > 100 µM | NCI/ADR-RES > 100 µM | RPMI-8226 > 100 µM | SK-MEL-5 > 100 µM | SR > 10 µM | T47D > 100 µM | UACC-62 > 100 µM

N#C/C(C(=O)Nc1ccc(Cl)cc1)=C(/N)N1CCCCC1
inactive: 786-0 > 100 µM | A498 > 100 µM | ACHN > 100 µM | DU-145 > 100 µM | EKVX 45.1 µM | HCC 2998 > 100 µM | HL-60 10 µM | IGROV-1 66.5 µM | MCF7 > 100 µM | MDA-MB-435 > 100 µM | MDA-N > 100 µM | NCI-H23 64.4 µM | NCI/ADR-RES 79.3 µM | RPMI-8226 > 100 µM | SK-MEL-5 > 100 µM | SR > 100 µM | T47D > 100 µM | UACC-62 42.5 µM

Nc1nc(N)c2ncn(Cc3ccccc3)c2n1
inactive: 786-0 > 100 µM | A498 > 100 µM | ACHN > 100 µM | DU-145 > 100 µM | EKVX 21.8 µM | HCC 2998 > 100 µM | HT-29 > 100 µM | Hs-578T > 100 µM | IGROV-1 > 100 µM | MCF7 > 100 µM | MDA-MB-435 > 100 µM | MDA-N > 100 µM | NCI-H23 > 100 µM | NCI/ADR-RES > 100 µM | RPMI-8226 > 100 µM | SK-MEL-5 > 100 µM | T47D > 100 µM | UACC-62 > 100 µM

O=c1cc(NNc2cccc(F)c2)[nH]c(=O)[nH]1
inactive: 786-0 16.6 µM | A498 > 100 µM | ACHN 35.6 µM | DU-145 > 100 µM | HCC 2998 95.9 µM | HL-60 19.1 µM | HT-29 16.3 µM | Hs-578T 83 µM | IGROV-1 19.8 µM | MDA-N 80.2 µM | NCI-H23 > 100 µM | NCI/ADR-RES > 100 µM | RPMI-8226 16.7 µM | SK-MEL-5 > 100 µM | SR 10.2 µM | T47D 14.9 µM | UACC-62 35 µM

O=C1CC(c2ccccc2)n2cccc21 (stereo unspecified)
inactive: 786-0 > 100 µM | A498 > 100 µM | ACHN > 100 µM | DU-145 > 100 µM | EKVX > 100 µM | HCC 2998 > 100 µM | HL-60 65.6 µM | HT-29 > 100 µM | Hs-578T > 100 µM | IGROV-1 > 100 µM | MCF7 > 100 µM | MDA-MB-435 > 100 µM | NCI-H23 > 100 µM | NCI/ADR-RES > 100 µM | RPMI-8226 > 100 µM | SK-MEL-5 > 100 µM | SR > 100 µM | T47D > 100 µM | UACC-62 > 100 µM

N#Cc1cc(C#N)c(Cl)nc1N
inactive: 786-0 > 10 µM | ACHN > 10 µM | EKVX > 10 µM | HCC 2998 > 10 µM | HL-60 3.48 µM | HT-29 > 10 µM | Hs-578T > 10 µM | IGROV-1 > 10 µM | MCF7 > 10 µM | MDA-MB-435 > 10 µM | MDA-N > 10 µM | NCI-H23 > 10 µM | NCI/ADR-RES > 10 µM | RPMI-8226 > 10 µM | SK-MEL-5 > 10 µM | SR > 10 µM | T47D > 10 µM | UACC-62 > 10 µM

O=c1/c(=C/c2ccc([N+](=O)[O-])o2)sc2n1[C@@H](c1ccc(Cl)cc1)C=C(c1cc(F)c(Cl)cc1Cl)N=2
inactive: 786-0 4.71 µM | A498 30.7 µM | ACHN 16.3 µM | DU-145 17.7 µM | HL-60 12.3 µM | HT-29 6.62 µM | Hs-578T 56.5 µM | IGROV-1 15.8 µM | MCF7 13.3 µM | MDA-MB-435 16.1 µM | MDA-N 4.65 µM | NCI-H23 15.3 µM | NCI/ADR-RES 30.8 µM | RPMI-8226 5.16 µM | SK-MEL-5 13.9 µM | T47D 19 µM | UACC-62 14.8 µM

CN(C)CCNc1ncnc2nc(-c3ccccc3)c(-c3ccccc3)nc12
inactive: 786-0 > 100 µM | A498 > 100 µM | DU-145 > 100 µM | EKVX > 100 µM | HL-60 > 100 µM | HT-29 > 100 µM | Hs-578T > 100 µM | IGROV-1 > 100 µM | MCF7 57.5 µM | MDA-MB-435 > 100 µM | MDA-N > 100 µM | NCI-H23 > 100 µM | NCI/ADR-RES > 100 µM | SK-MEL-5 > 100 µM | T47D > 100 µM | UACC-62 > 100 µM
